Data as given in US9951115B2, “CGRP agonist peptides” (priority 2013, dated 2018).
Bridge positions count the residues as written; N and C are the ends. Peptide text beside a SMILES is read from it.

How the values were obtained:
[1] = biological target: T1, CALCRL:RAMP3 (adrenomedullin 2 (AM2) receptor) (Homo sapiens, UniProt O60896+Q16602); assay: CALCRL:RAMP3 CRE-bla Freestyle 293F agonist screen (adrenomedullin 2 receptor); format: cell-based; conditions: CALCRL:RAMP3-CRE-bla Freestyle 293F cells, 5 hours incubation, FIG. 2
T1 construct: host or cells: Freestyle 293F (CRE-bla reporter line)
T1 sequence (Q16602 23-461): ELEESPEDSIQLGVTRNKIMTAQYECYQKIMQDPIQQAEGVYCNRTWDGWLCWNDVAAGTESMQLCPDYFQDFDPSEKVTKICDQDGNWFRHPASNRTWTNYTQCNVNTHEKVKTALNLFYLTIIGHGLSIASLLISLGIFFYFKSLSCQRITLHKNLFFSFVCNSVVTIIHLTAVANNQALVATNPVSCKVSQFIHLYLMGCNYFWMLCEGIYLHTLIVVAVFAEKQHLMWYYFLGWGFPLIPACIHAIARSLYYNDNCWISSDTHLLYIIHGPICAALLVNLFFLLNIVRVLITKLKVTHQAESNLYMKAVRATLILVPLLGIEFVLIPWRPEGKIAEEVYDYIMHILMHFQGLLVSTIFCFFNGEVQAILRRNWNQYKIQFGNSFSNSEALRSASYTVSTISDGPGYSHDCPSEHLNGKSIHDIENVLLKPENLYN
T1 sequence (O60896 24-148): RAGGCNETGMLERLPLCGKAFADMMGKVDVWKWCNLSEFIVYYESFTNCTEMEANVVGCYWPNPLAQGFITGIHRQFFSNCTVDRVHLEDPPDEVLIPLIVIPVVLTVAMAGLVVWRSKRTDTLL
Description: Cell-based GPCR Profiling Assays. A representative CGRP agonist peptide according to the present invention, ACX017 (SEQ ID NO:1), was profiled against G-Protein Coupled Receptors (GPCRs) in cell-based assays to determine its agonist activity and dose response. Assays were performed using the SelectScreen® Cell-based GPCR Profiling Services by Life Technologies, Carlsbad, Calif.
CALCRL:RAMP3—CRE-bla Freestyle 293F—Agonist Screen (Adrenomedullin 2 Receptor)
CALCRL:RAMP3-CRE-bla Freestyle 293F cells were thawed and resuspended in Assay Media (DMEM, 10% dialyzed FBS, 25 mM HEPES pH 7.3, 0.1 mM NEAA, 100 U/mL/100 μg/mL Pen/Strep) to a concentration of 312,500 cells/mL. 32 μL of cell suspension (10,000 cells) was added to each well of a 384-well Poly-D-Lysine assay plate. Cells in Assay Media were incubated for 16-24 hours in the plate at 37° C./5% CO2 in a humidified incubator. 4 μL of a 10× serial dilution of Adrenomedullin or ACX017 were added to appropriate wells of the plate. […] The plate was read on a fluorescence plate reader. […]
Cell-free Control. […] It was used to determine the background fluorescence for both coumarin and fluorescein wavelengths. […]
Known Agonist. A known agonist titration was run on every plate for each cell-line to ensure the cell line was activated within an expected EC50/IC50 range as previously determined.

[2] = tested on: Sprague Dawley rats, food intake; assay: Four-day food intake study; format: in vivo, rat; conditions: male Sprague Dawley rats on 60% kcal fat diet, 150 μg/kg intraperitoneal once daily for four days, food intake at 2, 4, 6, 8 hours post dose
Description: Food Intake Study. The effect of a CGRP agonist, in accordance with the present invention, on food intake over time both within and across several days of treatment was evaluated. Study was performed by Explora BioLabs, San Diego, Calif. and animals treated in accordance with its IACUC standards.
On Day 0, 12 animals were randomized into two groups, Test and Control, to obtain similar body weight averages between groups. Animals were dosed via a single intraperitoneal injection, with either ACX017 (SEQ. ID NO:1) (Test group) or vehicle (Control group) each day, for four days. On each day, dosing was performed in the hour prior to the end of the light phase. ACX017 was dosed at 150 μg/kg in a 10% DMSO aqueous solution. Both ACX017 and vehicle were delivered as 1 mL/kg doses.
Food consumption was measured pre-dose and at 2, 4, 6 and 8 hours post dose. Food intake was measured by weighing food hoppers on Days 1, 2, 3 and four in the hour before end of the light phase and at 2, 4, 6 and 8 hours post dosing.
Average food intake for each of the Test and Control groups at each time point post dosing was determined. Cumulative food intake for each group over the entire test period (8 hours) is provided in graph form in FIGS. 1-4 for each of Days 1-4, respectively.

Question: What does the source list for `CC(C)C[C@H](NC(=O)[C@H](CCCNC(=N)N)NC(=O)CNC(=O)[C@H](CC(C)C)NC(=O)[C@@H](NC(=O)[C@@H]1CSSC[C@H](NC(=O)[C@H](C)N)C(=O)N[C@@H](CC(=O)O)C(=O)N[C@@H]([C@@H](C)O)C(=O)N[C@@H](C)C(=O)N[C@@H]([C@@H](C)O)C(=O)N1)C(C)C)C(=O)N[C@@H](CO)C(=O)N[C@@H](CCC(N)=O)C(=O)N[C@@H](CCC(=O)O)C(=O)N[C@@H](CC(C)C)C(=O)N[C@@H](Cc1c[nH]cn1)C(=O)N[C@@H](CCCNC(=N)N)C(=O)N[C@@H](CC(C)C)C(=O)N[C@@H](CCC(N)=O)C(=O)N[C@H](C(=O)N[C@@H](Cc1ccc(O)cc1)C(=O)N1CCC[C@H]1C(=O)N[C@@H](CCCNC(=N)N)C(=O)N[C@H](C(=O)N[C@@H](CC(N)=O)C(=O)N[C@H](C(=O)NCC(=O)N[C@@H](CO)C(=O)N[C@@H](CCCCN)C(=O)N[C@@H](C)C(=O)N[C@@H](Cc1ccccc1)C(N)=O)C(C)C)[C@@H](C)O)[C@@H](C)O` [ACX017] (H-ACDTATCVLGRLSQELHRLQTYPRTNVGSKAF-NH2; disulfide 2-7)?
Answer: activation of the adrenomedullin 2 (AM2) receptor [1]: did not activate the adrenomedullin 2 (AM2) receptor; appetite suppression (reduced food intake compared to Control group) [2]: suppressed appetite in the Test group for at least about four hours after dosing
